Measurements reported in patent publication US7632666B2 (priority 2005, dated 2009).
Read-outs that look alike come from different tables or passages of the source.

What was measured:
[1] = biological target: haloalkane dehalogenase DbjA (Bradyrhizobium diazoefficiens, UniProt P59337); assay type: biochemical, Bradyrhizobium japonicum USDA110
[2] = biological target: haloalkane dehalogenase DhaA (Rhodococcus rhodochrous, UniProt P0A3G2); assay type: biochemical, Rhodococcus rhodochrous NCIMB 13064
[3] = test system: haloalkane dehalogenase DbeA; assay type: biochemical, Bradyrhizobium elkanii; conditions: pH 8.2
[4] = biological target: haloalkane dehalogenase DhlA (Xanthobacter autotrophicus, UniProt P22643); assay type: biochemical, Xanthobacter autotrophicus GJ10
[5] = biological target: haloalkane dehalogenase LinB (Sphingobium indicum, UniProt D4Z2G1); assay type: biochemical, Sphingomonas paucimobilis UT26
[6] = test system: haloalkane dehalogenases DmbA, DmbB, DmbC, DhlA, DhaA, DrbA, LinB, DhmA, DbjA and DbeA; assay type: biochemical
[7] = test system: haloalkane dehalogenase DrbA; assay type: biochemical, Rhodopirellula baltica; conditions: pH 8.2
[8] = biological target: haloalkane dehalogenase DhmA (Mycobacterium avium, UniProt Q93K00); assay type: biochemical; conditions: pH 8.2
[9] = biological target: haloalkane dehalogenase DmbB (Mycobacterium bovis, UniProt P64302); assay type: biochemical; conditions: pH 8.2
[10] = biological target: haloalkane dehalogenase DmbC (Mycobacterium bovis, UniProt P64304); assay type: biochemical; conditions: pH 8.2
[11] = biological target: modified protein MUT01 with haloalkane dehalogenase activity (Rhodococcus rhodochrous, UniProt P0A3G2, A172V/C176G/F144A/G171R/INS140[…]/K175G/P142A/V245A/W141H); assay type: biochemical; conditions: pH 8.2

Compound | E-values DbjA [1] | E-value, chiral recognition by DbjA ([1]; pH 8.2) | E-values DhaA [2] | E-value, chiral recognition by DbeA [3] | E-values DhlA [4] | E-values LinB [5] | E-value, chiral recognition by DhaA ([2]; pH 8.2) | enantioselectivity [6] | E-values DrbA [7] | E-values DhmA [8] | E-values DbjA ([1]; pH 8.2) | E-values DhaA ([2]; pH 8.2) | E-values DmbB [9] | E-values DmbC [10] | E-values DbeA [3] | E-values LinB ([5]; pH 8.2) | E-value, chiral recognition by protein MUT01 [11]
CCCC(C)Br (racemic) [2-bromopentane] | 145 | > 145 | 7 | 98 | 5.5 | 16 |  |  |  |  |  |  |  |  |  |  | 
COC(=O)C(C)Br (racemic) [methyl 2-bromopropionate] | >200 |  | 68 |  |  | 52 | > 200 | excellent enantioselectivity |  |  |  |  |  |  |  |  | 
CC(Br)C(=O)c1ccccc1 (racemic) [2-bromopropiophenone] | >200 | > 200 | >200 |  |  | 13 |  | excellent enantioselectivity |  |  |  |  |  |  |  |  | 
CCOC(=O)C(Br)CC (racemic) [ethyl 2-bromobutyrate] | >200 |  | >200 |  |  | >200 |  |  | >200 | >200 | >200 | >200 | >200 | >200 | >200 | >200 | 
CCOC(=O)C(C)Br (racemic) [ethyl 2-bromopropionate] | 194 |  | 59 |  |  | 97 |  | excellent enantioselectivity |  |  |  |  |  |  |  |  | > 200
